Legend:
hLPAR1 = target: T1, hLPAR1 (Homo sapiens, UniProt Q92633); test: Ca2+ Flux Assay (B103 cells stably expressing hLPAR1); assay type: cell-based; settings: LPA-induced calcium release, Fura-2 AM, compound 20 min at RT
T1 construct: expressed in transfected cells
Protocol: B103 cells stably expressing hLPAR1 were seeded at a density of 1.0×10^5 cells per well in clear flat-bottom black 96-well plates and incubated overnight in complete media. The following day, the cells were pre-incubated in serum-free media for 2 hours prior to ensure cellular equilibration. For the loading a calcium-sensitive fluorescent dye, the cells were treated with a concentration of 5 μM Fura-2 AM dye (Sigma, F1225) in Hank's buffered salt solution (HBSS) supplemented with 20 mM HEPES, […], and 0.3% fatty-acid-free bovine serum albumin for 40 minutes at room temperature (RT). Test compounds, prepared in DMSO, were then added to each well and incubated for 20 minutes at RT. To induce calcium release, a concentration of […] in HBSS supplemented with 20 mM HEPES, and 0.3% fatty-acid-free bovine serum albumin was introduced. Intracellular calcium mobilization was subsequently quantified by monitoring the fluorescence intensity using the Spark® multimode microplate reader (TECAN).

A2058 cells = test: Chemotaxis Assay (LPA-induced migration of A2058 cells); assay type: cell-based; settings: Homo sapiens, 4 to 8 hours, crystal violet 590 nm
Protocol: For monitoring the migration of cells, Neuroprobe ChemoTx® System plates ([…], 5.7 mm diameter sites; Gaithersburg, MD, USA) were utilized. To induce cell migrations, a concentration of […] or vehicle in DMEM were loaded to the bottom chamber. A total of 15,000 A2058 cells, which were starved for 24 hr following treated with test compounds or vehicle, were then applied to the upper membrane coated with 0.001% fibronectin. The plate was incubated for 4 to 8 hours to allow cell migration. Following incubation, the plate was dissembled, and the migrated cells were visualized by crystal violet staining. The stained area with crystal violet was quantified by measuring the absorbance at 590 nm and the relative percentage of the control was calculated.

T1 sequence (Q92633 whole entry): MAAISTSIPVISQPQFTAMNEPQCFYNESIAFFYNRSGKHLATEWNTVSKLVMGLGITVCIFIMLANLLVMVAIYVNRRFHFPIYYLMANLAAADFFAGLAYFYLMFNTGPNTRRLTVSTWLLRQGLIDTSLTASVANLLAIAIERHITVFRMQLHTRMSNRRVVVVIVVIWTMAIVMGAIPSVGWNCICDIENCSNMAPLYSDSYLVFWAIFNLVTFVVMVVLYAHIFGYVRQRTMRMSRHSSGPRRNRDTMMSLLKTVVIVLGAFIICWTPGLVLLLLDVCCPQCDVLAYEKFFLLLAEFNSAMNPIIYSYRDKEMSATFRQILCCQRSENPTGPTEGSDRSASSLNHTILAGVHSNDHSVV

Row | Structure (SMILES) | IC50 (hLPAR1) [nM] | IC50 (A2058 cells) [nM]
1 | COc1cc(C2(C(=O)NS(=O)(=O)CCC(=O)O)CC2)ccc1N1CCC(c2onc(C)c2NC(=O)O[C@H](C)c2ccccc2)CC1 [Compound 1, 3-[[1-[3-methoxy-4-[4-[3-methyl-4-[[(1R)-1-phenylethoxy]carbonylamino]isoxazol-5-yl]-1-piperidyl]phenyl]cyclopropanecarbonyl]sulfamoyl]propanoic acid] | < 10 | < 100
2 | C=CCS(=O)(=O)NC(=O)C1(c2ccc(N3CCC(c4onc(C)c4NC(=O)O[C@H](C)c4ccccc4)CC3)cc2)CC1 [Compound 2, (1R)-1-phenylethyl N-{3-methyl-5-[1-(4-{1-[(prop-2-ene-1-sulfonyl)carbamoyl]cyclopropyl}phenyl)piperidin-4-yl]-1,2-oxazol-4-yl}carbamate] | < 10 | < 100
3 | COc1cc(C2(CNS(=O)(=O)CCC(=O)O)CC2)ccc1N1CCC(c2nnn(C)c2NC(=O)O[C@H](C)c2ccccc2)CC1 [Compound 3] | < 10 | ≥ 5000
4 | COc1cc(C2(C(=O)O)CC2)ccc1N1CCC(c2nnn(C)c2NC(=O)O[C@H](C)c2ccccc2)CC1 [Compound 4] | < 10 | 500 to 5000
5 | Cc1noc(C2CCN(c3ccc(C4(C(=O)O)CC4)cc3)CC2)c1NC(=O)OCC1CC1 [Compound 5] | 10 to 200 | 500 to 5000
6 | Cc1noc(C2CCN(c3ccc(C4(C(=O)NS(C)(=O)=O)CC4)cc3)CC2)c1NC(=O)O[C@H](C)c1ccccc1Cl [Compound 11] | 10 to 200 | 100 to 500
7 | Cc1noc(C2CCN(c3ccc(C4(C(=O)OCc5oc(=O)oc5C)CC4)cc3)CC2)c1NC(=O)O[C@H](C)c1ccccc1 [Compound 14] | < 10 | < 100
8 | Cc1nnn(C2CCN(c3ccc(C4(C(=O)NS(=O)(=O)C(F)(F)F)CC4)cc3)CC2)c1NC(=O)O[C@H](C)c1ccccc1 [Compound 15] | 200 to 3000 | 500 to 5000
9 | Cc1noc(C2CCN(c3ccc(C4(C(=O)O)CC4)cc3)CC2)c1NC(=O)N[C@H](C)c1ccccc1 [Compound 16] | 10 to 200 | 500 to 5000
10 | COc1c(C)cc(NC(=O)O[C@H](C)c2ccccc2)c(C2CCN(c3ccc(C4(C(=O)O)CC4)cc3)CC2)c1C [Compound 18] | 200 to 3000 | 500 to 5000
11 | COCc1ccccc1[C@H](C)OC(=O)Nc1c(C2CCN(c3ccc(C4(C(=O)O)CC4)cc3)CC2)nnn1C [Compound 24, (S)-1-(4-(4-(5-(((1-(2-(methoxymethyl)phenyl)ethoxy)carbonyl)amino)-1-methyl-1H-1,2,3-triazol-4-yl)piperidin-1-yl)phenyl)cyclopropane-1-carboxylic acid] | < 10 | 100 to 500
12 | C[C@@H](OC(=O)Nc1c(C2CCN(c3ccc(C4(C(=O)O)CC4)cc3)CC2)nnn1C)C1CCCCC1 [Compound 26, (R)-1-(4-(4-(5-(((1-cyclohexylethoxy)carbonyl)amino)-1-methyl-1H-1,2,3-triazol-4-yl)piperidin-1-yl)phenyl)cyclopropane-1-carboxylic acid] | < 10 | 500 to 5000
13 | C[C@@H](OC(=O)Nc1c(C2CCN(c3ccc(C4(C(=O)O)CC4)cc3)CC2)nnn1C)c1ccccc1Cl [Compound 27, 1-(4-{4-[5-({[(1R)-1-(2-chlorophenyl)ethoxy]carbonyl}amino)-1-methyl-1H-1,2,3-triazol-4-yl]piperidin-1-yl}phenyl)cyclopropane-1-carboxylic acid] | < 10 | < 100
14 | C[C@@H](OC(=O)Nc1cccnc1C1CCN(c2ccc(C3(C(=O)O)CC3)cc2)CC1)c1ccccc1 [Compound 28] | 10 to 200 | 500 to 5000
15 | Cc1ncnc(C2CCN(c3ccc(C4(C(=O)O)CC4)cc3)CC2)c1NC(=O)O[C@H](C)c1ccccc1 [Compound 29] | 200 to 3000 | 500 to 5000
16 | Cc1noc(C2CCN(c3ccc(C4(C(=O)O)CC4)cc3)CC2)c1NC(=O)O[C@H](C)c1ccccc1C(C)(C)F [Compound 30] | 10 to 200 | 500 to 5000

Other lines, results leading:

Row | IC50 (hLPAR1) [nM] | IC50 (A2058 cells) [nM] | Structure (SMILES)
17 | 10 to 200 | < 100 | Cc1ccccc1[C@@H](C)OC(=O)Nc1c(C)noc1C1CC2(C1)CN(c1ccc(C3(C(=O)NS(=O)(=O)CCC(=O)O)CC3)cc1)C2 [Compound 31, 3-({[1-(4-{6-[3-methyl-4-({[(1R)-1-(2-methylphenyl)ethoxy]carbonyl}amino)-1,2-oxazol-5-yl]-2-azaspiro[3.3]heptan-2-yl}phenyl)cyclopropyl]formamido}sulfonyl)propanoic acid]
18 | 200 to 3000 | ≥ 5000 | Cc1noc(C2CCN(c3ccc(C4(C(=O)O)CC4)cc3)CC2)c1NC(=O)[C@H](O)c1ccccc1 [Compound 32]
19 | 10 to 200 | < 100 | Cc1ccccc1[C@@H](C)OC(=O)Nc1c(C2CCN(c3ccc(C4(C(=O)O)CC4)cc3)CC2)cnn1C [Compound 34]
20 | < 10 | < 100 | Cc1ccccc1[C@@H](C)OC(=O)Nc1c(C)nsc1C1CCN(c2ccc(C3(C(=O)O)CC3)cc2)CC1 [Compound 36]
21 | < 10 | < 100 | C[C@@H](OC(=O)Nc1c(C2CCN(c3ccc(C4(C(=O)NS(=O)(=O)C5(C(=O)O)CC5)CC4)cc3)CC2)nnn1C)c1ccccc1Cl [Compound 39, 1-[[1-[4-[4-[5-[[(1R)-1-(2-chlorophenyl)ethoxy]carbonylamino]-1-methyl-triazol-4-yl]-1-piperidyl]phenyl]cyclopropanecarbonyl]sulfamoyl]cyclopropanecarboxylic acid]
22 | 10 to 200 | 100 to 500 | C[C@@H](OC(=O)Nc1c(C2CCN(c3ccc(C4(C(=O)NS(=O)(=O)CC(C)(C)C(=O)O)CC4)cc3)CC2)nnn1C)c1ccccc1Cl [Compound 40]
23 | < 10 | 100 to 500 | C[C@@H](OC(=O)Nc1c(C2CCN(c3ccc(C4(C(=O)NS(=O)(=O)CC5(C(=O)O)CC5)CC4)cc3)CC2)nnn1C)c1ccccc1Cl [Compound 41]
24 | 10 to 200 | < 100 | Cc1nsc(C2CCN(c3ccc(C4(C(=O)O)CC4)cc3)CC2)c1NC(=O)O[C@H](C)c1ccccc1Cl [Compound 42]
25 | 10 to 200 | 100 to 500 | Cc1nsc(C2CCN(c3ccc(C4(C(=O)O)CC4)cc3)CC2)c1NC(=O)O[C@H](C)c1ccccc1F [Compound 43]
26 | 10 to 200 | 100 to 500 | COc1ccccc1[C@@H](C)OC(=O)N(C)c1c(C)nsc1C1CCN(c2ccc(C3(C(=O)O)CC3)cc2)CC1 [Compound 44]
27 | 10 to 200 | 100 to 500 | Cc1noc(C2CCN(c3ccc(C4(C(=O)O)CC4)cc3)CC2)c1N(C)C(=O)O[C@H](C)c1ccccc1 [Compound 45]
28 | < 10 | 500 to 5000 | COc1cc(C2(C(=O)O)CC2)ccc1N1CC2(CC(c3onc(C)c3NC(=O)O[C@H](C)c3ccccc3)C2)C1 [Compound 46, 1-(3-methoxy-4-{6-[3-methyl-4-({[(1R)-1-phenylethoxy]carbonyl}amino)-1,2-oxazol-5-yl]-2-azaspiro[3.3]heptan-2-yl}phenyl)cyclopropane-1-carboxylic acid]
29 | 200 to 3000 | 500 to 5000 | CO[C@@H](C(=O)Nc1c(C)noc1C1CCN(c2ccc(C3(C(=O)O)CC3)cc2)CC1)c1ccccc1 [Compound 47]
30 | 10 to 200 | < 100 | Cc1noc(C2CC3(C2)CN(c2ccc(C4(C(=O)NS(=O)(=O)CC(=O)O)CC4)cc2)C3)c1NC(=O)O[C@H](C)c1ccccc1 [Compound 48]
